Reference: patent publication US7049311B1, “Pyrrolbenzodiazepines” (Spirogen Limited, priority 1998, dated 2006)
Where two headings read alike, the source gives them in different places.

Assays:
A2780cisR [1] = assay: Cytotoxicity in cisplatin-resistant A2780cisR (Example 9); type: cell-based, human
Procedure: (§1) Relative to the parental line, the A2780cisR subline is known to have elevated GSH levels, an increased level of repair of DNA-cisplatin adducts, and a decreased ability to uptake cisplatin (M. Smellie, et al., Br. J. Cancer, 1994, 70, 48).
(§2) The results, which were obtained by incubating the cells with the compounds for 96 hours at 37° C., and assessing the cell number using Sulforhodamine B, are presented in the table below: […]

[2] = tested on: human ovarian carcinoma cell line A2780; assay: Cytotoxicity in A2780 (Example 9); type: cell-based; settings: read-out: IC50 A2780
Procedure: as §1, §2

calf thymus DNA = assay: DNA helix melting temperature assay; type: binding; settings: [PBD]:[DNA] ratio of 1:5, calf thymus DNA; for Induced ΔTa after incubation at 37° C. for 0 h: pH 7.00, 0 h; for Induced ΔTa after incubation at 37° C. for 4 h: pH 7.00, 4 h; for Induced ΔTa after incubation at 37° C. for 18 h: pH 7.00, 18 h
Procedure: The first assay, which is described in G. B. Jones, et al., Anti-Cancer Drug Des., 1990, 5, 249, which is incorporated herein by reference, determines the effect of the test compound on the helix melting temperature of DNA. This assay is designed to give an indication of the strength and extent of cross-linking of the DNA strands by the test compound (i.e. a measure of the stabilisation of the DNA upon ligand binding).
The melting temperature was determined for a 1:5 molar ratio of [ligand] [DNA], where the calf thymus DNA concentration is […] in aqueous sodium phosphate buffer (10 mM sodium phosphate+1 mM EDTA, pH 7.00±0.01). For calf thymus DNA at pH 7.00±0.01, the melting temperature is 67.83±0.06° C. (mean value from 30 separate determinations).

KM12 = assay: NCI in vitro cytotoxicity screen; type: cell-based; settings: Homo sapiens, KM12, 48 h, read-out: LC50
Procedure: (§3) The National Cancer Institute (NCI), Bethesda, Md., USA has available an in vitro cytotoxicity screen which consists of approximately 60 human tumour cell lines against which compounds are tested at a minimum of five concentrations each differing 10-fold. A 48 hour continuous exposure protocol is used, where cell viability or growth is estimated with an SRB protein assay.
(§4) The test compounds were evaluated against approximately 60 human tumour cell lines. The NCI screening procedures were described in detail by Monks and co-workers (Monks, A et al., Journal of the National Cancer Institute, 1991, 83, 757). Briefly, cell suspensions were diluted according to the particular cell type and the expected target cell density (5000-40,000 cells per well based on cell growth characteristics), and added by pipette (100 μL) into 96-well microtitre plates. The cells were allowed a preincubation period of 24 hours at 37° C. for stabilisation. Dilutions at twice the intended test concentration were added at time zero in 100 μL aliquots to the wells. The test compounds were evaluated at five 10-fold dilutions (10^−4, 10^−5, 10^−6, 10^−7 and 10^−[…]). The test compounds were incubated for 48 hours in 5% CO2 atmosphere and 100% humidity. The cells were then assayed using the sulphorhodamine B assay. A plate reader was used to read the optical densities and a microcomputer processed the readings into LC50 values, which is the dosage required to kill half of the cells.

COLO 205 = assay: NCI in vitro cytotoxicity screen; type: cell-based; settings: Homo sapiens, COLO 205, 48 h, read-out: LC50
Procedure: as §3, §4

MALME-3M = assay: NCI in vitro cytotoxicity screen; type: cell-based; settings: Homo sapiens, Malme-3M, 48 h, read-out: LC50
Procedure: as §3, §4

SNB-75 = assay: NCI in vitro cytotoxicity screen; type: cell-based; settings: Homo sapiens, SNB-75, 48 h, read-out: LC50
Procedure: as §3, §4

UACC-62 = assay: NCI in vitro cytotoxicity screen; type: cell-based; settings: Homo sapiens, UACC-62, 48 h, read-out: LC50
Procedure: as §3, §4

NCI-H460 = assay: NCI in vitro cytotoxicity screen; type: cell-based; settings: Homo sapiens, NCI-H460, 48 h, read-out: LC50
Procedure: as §3, §4

HCC-2998 = assay: NCI in vitro cytotoxicity screen; type: cell-based; settings: Homo sapiens, HCC 2998, 48 h, read-out: LC50
Procedure: as §3, §4

SKOV-3 = assay: Ovarian carcinoma cytotoxicity assay; type: cell-based; settings: Homo sapiens, SK-OV-3; 96 hours, sulphorhodamine B; read-out: IC50 Skov3
Procedure: (§5) Compounds of the invention (and Anthramycin as a comparison) were evaluated for their cytotoxic activity in ovarian cell lines by Dr Lloyd R. Kelland's group at The Institute of Cancer Research, Sutton, UK. The five cell lines investigated were SKOV-3, A2780/A2780cisR and CH1/CH1cisR (cis R denotes that the cell line is resistant to cisplatin).
(§6) Single viable cells were seeded in growth medium (160 μL) in […] microtitre plates and allowed to attach overnight. […] After 96 hours, the medium was removed and the remaining cells fixed by exposure to 10% trichloroacetic acid on ice for 30 minutes. The wells were then washed 3-4 times with tap water, air dried overnight and treated with 100 μL of sulphorhodamine B (0.4%) dissolved in 1% acetic acid. Staining was allowed to continue for 10-15 minutes, then the wells were washed 3-4 times with 1% acetic acid, air dried and then added to Tris base (100 μL of 10 mM). Plates were then shaken and absorbance readings at 540 nm were determined using a plate reader. By using the Quattro-Pro software package, the IC50 values were calculated from plots of concentration versus percentage absorbance (compared with 8 untreated wells).

CH1 = assay: Ovarian carcinoma cytotoxicity assay; type: cell-based; settings: Homo sapiens, CH1; 96 hours, sulphorhodamine B; read-out: IC50 CH1
Procedure: as §5, §6

CH1cisR = assay: Ovarian carcinoma cytotoxicity assay; type: cell-based; settings: Homo sapiens, CH1cisR; cisplatin-resistant, 96 hours, sulphorhodamine B; read-out: IC50 CH1cisR
Procedure: as §5, §6

A2780 = assay: Ovarian carcinoma cytotoxicity assay; type: cell-based, human; settings: Homo sapiens, A2780; 96 hours, sulphorhodamine B; read-out: IC50 A2780
Procedure: as §5, §6

A2780cisR [3] = assay: Ovarian carcinoma cytotoxicity assay; type: cell-based, human; settings: Homo sapiens, A2780cisR; cisplatin-resistant, 96 hours, sulphorhodamine B; read-out: IC50 A2780cisR
Procedure: as §5, §6

SK-MEL-2 = assay: NCI in vitro cytotoxicity screen; type: cell-based; settings: Homo sapiens, SK-MEL-2, 48 h, read-out: LC50
Procedure: as §3, §4

RXF 393 = assay: NCI in vitro cytotoxicity screen; type: cell-based; settings: Homo sapiens, RXF 393, 48 h, read-out: LC50
Procedure: as §3, §4

NCI-H522 = assay: NCI in vitro cytotoxicity screen; type: cell-based; settings: Homo sapiens, NCI-H522, 48 h, read-out: LC50
Procedure: as §3, §4

[4] = tested on: approximately 60 human tumour cell lines; assay: NCI in vitro cytotoxicity screen, whole panel; type: cell-based; settings: all panels
Procedure: as §3
as §4, with “The test compounds were incubated for 48 hours in 5% CO2 atmosphere and 100% humidity. The cells were then assayed using the sulphorhodamine B assay.” left out

SMILES | Induced ΔTa after incubation at 37° C. for 0 h (calf thymus DNA) | Induced ΔTa after incubation at 37° C. for 4 h (calf thymus DNA) | Induced ΔTa after incubation at 37° C. for 18 h (calf thymus DNA) | IC50 (SKOV-3) | IC50 (CH1) | IC50 (CH1cisR) | IC50 (A2780) | IC50 (A2780cisR [3]) | other results
N.N.[Cl][Pt][Cl] [Cisplatin, reference compound] | – | – | – | – | – | – | – | – | IC50 (A2780cisR [1]; cisplatin-resistant subline, 96 hours at 37° C., Sulforhodamine B, read-out: IC50 A2780cis^a): 8400 nM; IC50 ([2]; 96 hours at 37° C., Sulforhodamine B): 265 nM
COc1cc2c(cc1OCCCOc1cc3c(cc1OC)C(=O)N1CCC[C@@H]1C=N3)N=C[C@@H]1CCCN1C2=O [DSB-120, reference compound] | 10.2 °C | 13.1 °C | 15.1 °C | – | – | – | – | – | IC50 (A2780cisR [1]; Homo sapiens, A2780cisR, 96 h, read-out: IC50 A2780cisR): 210 nM; IC50 (A2780cisR [1]; Homo sapiens, A2780cisR, 96 h, read-out: IC50 A2780cis^a): 210 nM; IC50 ([2]; Homo sapiens, A2780, 96 hours): 7.2 nM
C/C=C1\C[C@H]2C=Nc3cc(O)c(OC)cc3C(=O)N2C1 [Tomamycin, tomaymycin] | 0.97 °C | 2.38 °C | 2.56 °C | – | – | – | – | – | –
COC(=O)CC1=CN2C(=O)c3cc(OC)c(OCc4ccccc4)cc3N=C[C@@H]2C1 [UP2003 (24)] | – | – | – | 12 nM | 16 nM | 40 nM | 14.5 nM | 120 nM | CC50 (KM12): 9500 nM; CC50 (COLO 205): 1400 nM; CC50 (MALME-3M): 700 nM; CC50 (SNB-75): 6000 nM; CC50 (UACC-62): 700 nM; CC50 (NCI-H460): 7600 nM; CC50 (HCC-2998): 5200 nM
COc1ccc(-c2ccc3c(c2)C(=O)N2CCC[C@H]2C=N3)cc1 [UP2027 (138), (11aS)-7-(4′-Methoxyphenyl)-1,2,3,11a-tetrahydro-5H-pyrrolo[2,1-c]-[1,4]benzodiazepin-5-one] | – | – | – | 1700 nM | 1350 nM | 1150 nM | 560 nM | 1550 nM | CC50 (SK-MEL-2): 9500 nM; CC50 (RXF 393): 6600 nM; CC50 (NCI-H522): 8000 nM
O=C1c2cc(-c3cccc([N+](=O)[O-])c3)ccc2N=C[C@@H]2CCCN12 [UP2029 (140), (11aS)-7-(3′-Nitrophenyl)-1,2,3,11a-tetrahydro-5H-pyrrolo[2,1-c][1,4]benzodiazepin-5-one] | – | – | – | 1400 nM | 22500 nM | 14000 nM | 34500 nM | 32000 nM | cytotoxic activity (LC50 below 10 μM) [4]: completely abolished cytotoxic activity
